# In US12396471B2, “Composition containing sesamin and PQQ” (SUNTORY HOLDINGS LIMITED, priority 2019, dated 2025):
# Tested on: TIG-3 cells
# Assay: Evaluation test of mitochondrial function: amount of ATP production (decrease in oxygen consumption rate by oligomycin) after H2O2 treatment
# Type: cell-based
# Conditions: for Measured value: amount of ATP production (amount of decrease in oxygen consumption rate by the ATP synthase inhibitor): TIG-3 cells cultured 24 h with test substance, then H2O2 800 μM for two hours, XF analyzer, concentrations of SE and PQQ·2Na per example; for Recovery rate (%) from Comparative Example 1: measured value divided by that of Comparative Example 1 (H2O2 800 μM only) x 100
# Method: To examine mitochondrial function, TIG-3 cells at 5.5×10^3 cells/well were seeded onto cell culture plates, and cultured at 37° C. with CO2 (5%) for 24 hours. After 24 hours of culturing, compositions each containing a sesamin-episesamin mixture and PQQ were added to the media in the wells at the respective concentrations shown in Table 1 below, and cultured for 24 hours. Subsequently, the media containing the sesamin-episesamin mixture and the PQQ were removed, and the cells in the wells were treated with media containing H2O2 (800 μM) for two hours. Subsequently, each medium was replaced with an analysis medium, and the oxygen consumption rate was analyzed using an analyzer (XF analyzer, Agilent Technologies Japan, Ltd.). After completion of analysis, the nuclei were stained with Hoechst, and the cells were photographed by a fluorescence microscope “BZ-x” (Keyence Corporation). The number of cells was counted by image analysis. The amount of ATP production was the amount of decrease in oxygen consumption rate by the ATP synthase inhibitor (oligomycin).
# To examine mitochondrial function, TIG-3 cells at 5.5×10^3 cells/well were seeded onto a dedicated plate, and cultured at 37° C. with CO2 (5%) for 24 hours. The cells were further cultured for 26 hours without adding a sesamin-episesamin mixture and a composition containing PQQ to the medium 24 hours after the first culturing and without treating cells in the well with a medium containing H2O2 (800 μM) for two hours. Then, the oxygen consumption rate in Reference Example 1 was analyzed and the number of cells was counted as in Example 1, except for the differences described above. The amount of ATP production was also measured.
# To examine mitochondrial function, TIG-3 cells at 5.5×10^3 cells/well were seeded onto a dedicated plate, and cultured at 37° C. with CO2 (5%) for 24 hours. The cells were further cultured for 24 hours without adding a sesamin-episesamin mixture and a composition containing PQQ to the medium 24 hours after the first culturing. Then, the oxygen consumption rate in Comparative Example 1 was analyzed and the number of cells was counted as in Example 1, except for the differences described above. The amount of ATP production was also measured.
# To examine mitochondrial function, TIG-3 cells at 5.5×10^3 cells/well were seeded onto a dedicated plate, and cultured at 37° C. with CO2 (5%) for 24 hours. After 24 hours of culturing, a sesamin-episesamin mixture or PQQ was added to each medium in the wells at the corresponding concentration shown in Table 1 below, and cultured for 24 hours. Except what is described above, the oxygen consumption rate in each of Comparative Examples 2 to 9 was analyzed, and the number of cells was counted as in Example 1. The amount of ATP production was measured.
# In Table 1, values in “Measured value” (pmol/min/10^3 cells) show the amount of ATP production (the amount of decrease in oxygen consumption rate by the ATP synthase inhibitor) determined above.
# Values in “Recovery rate (%) from Comparative Example 1” are each obtained by dividing a measured value in one example or comparative example by the measured value of Comparative Example 1 and multiplying the resulting value with 100. A higher recovery rate means a larger amount of ATP production. […] In FIG. 1, “SE” indicates the sesamin-episesamin mixture.
SMILES,Measured value: amount of ATP production (amount of decrease in oxygen consumption rate by the ATP synthase inhibitor),"decline in the amount of ATP production compared to the H2O2-treated group according to Comparative Example 1 (TIG-3 cells, H2O2 800 μM)",Recovery rate (%) from Comparative Example 1 (TIG-3 cells),"increase in the amount of ATP production compared to the H2O2-treated group according to Comparative Example 1 (TIG-3 cells, H2O2 800 μM)"
"O=C([O-])c1cc(C(=O)[O-])c2c(n1)C(=O)C(=O)c1cc(C(=O)O)[nH]c1-2.[Na+].[Na+] [Comparative Example 5, PQQ·2Na]",6.06 pmol/min/10^3 cells,5.5%,94.5%,
"O=C([O-])c1cc(C(=O)[O-])c2c(n1)C(=O)C(=O)c1cc(C(=O)O)[nH]c1-2.[Na+].[Na+] [Comparative Example 6, PQQ·2Na]",6.49 pmol/min/10^3 cells,,101.1%,1.1%
"O=C([O-])c1cc(C(=O)[O-])c2c(n1)C(=O)C(=O)c1cc(C(=O)O)[nH]c1-2.[Na+].[Na+] [Comparative Example 7, PQQ·2Na]",6.71 pmol/min/10^3 cells,,104.6%,4.6%
"O=C([O-])c1cc(C(=O)[O-])c2c(n1)C(=O)C(=O)c1cc(C(=O)O)[nH]c1-2.[Na+].[Na+] [Comparative Example 8, PQQ·2Na]",7.40 pmol/min/10^3 cells,,115.3%,15.3%
"O=C([O-])c1cc(C(=O)[O-])c2c(n1)C(=O)C(=O)c1cc(C(=O)O)[nH]c1-2.[Na+].[Na+] [Comparative Example 9, PQQ·2Na]",7.56 pmol/min/10^3 cells,,117.8%,17.8%
